Among the data in ChEMBL document CHEMBL4382277, “Novel Fluorescence Competition Assay for Retinoic Acid Binding Proteins” (ACS Med Chem Lett, 2018) are inhibition and Kd values, retold here.

In general, Kd refers to the equilibrium constant for the complex coming apart. The low end stands for a tighter complex, the high end for a looser complex.

Calls of active or inactive are those of the source. No cut-off for these calls is given here.

For assay [1], the target named is T1, Cellular retinoic acid-binding protein 2 (Homo sapiens) (UniProt P29373).
T1 sequence (whole entry): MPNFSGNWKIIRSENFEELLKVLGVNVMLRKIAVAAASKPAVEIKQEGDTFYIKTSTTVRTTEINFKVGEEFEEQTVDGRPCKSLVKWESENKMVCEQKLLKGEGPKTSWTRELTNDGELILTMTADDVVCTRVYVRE
The experiment in a line: Displacement of DC271 from CRABP2 (unknown origin) at 200 to 1600 nM by fluorescence assay.

In assay [2] the target is T2, Cellular retinoic acid-binding protein 2 (Homo sapiens, UniProt P29373).
T2 sequence (P29373 whole entry): T1 sequence (whole entry)
The experiment in a line: Displacement of DC271 from CRABP2 (unknown origin) by fluorescence assay.

Take `c1ccc2ncccc2c1`: the inhibition entry in assay [1] is “inactive”. In the case of `CC1(C)CCC(C)(C)c2cc(C#Cc3ccc(C(=O)O)cc3)ccc21`, the dissociation constant (Kd) in assay [2] came to 160 nM. In the case of `CC1=C(/C=C/C(C)=C\C=C\C(C)=C\C(=O)O)C(C)(C)CCC1`, the inhibition entry in assay [1] is “Active”. Take `CC1=C(/C=C/C(C)=C/C=C/C(C)=C\C(=O)O)C(C)(C)CCC1`: the inhibition entry in assay [1] is “inactive”. With `CC1=C(/C=C/C(C)=C/C=C/C(C)=C/C(=O)O)C(C)(C)CCC1`, the inhibition entry in assay [1] is “Active”.

For the compound `O=C(O)c1ccccc1`, the inhibition result in assay [1] was “inactive”.
